Laboratory results as given in patent US10316049B2, “Tank-binding kinase inhibitor compounds” (Gilead Sciences, Inc., priority 2015, dated 2019).
pIC50: −log10 of the molar value.

Experiments:
IKKε = target: T1, IKKε (Homo sapiens, UniProt Q14164); experiment: TR-FRET enzymatic activity assay, IKKε; type: biochemical; conditions: read-out: IKKϵ IC50; further: full length recombinant IKKε at 0.3 nM
T1 construct: TBK1 and IKKε were expressed and purified as full length recombinant proteins; made in house
T1 sequence (Q14164 1-716): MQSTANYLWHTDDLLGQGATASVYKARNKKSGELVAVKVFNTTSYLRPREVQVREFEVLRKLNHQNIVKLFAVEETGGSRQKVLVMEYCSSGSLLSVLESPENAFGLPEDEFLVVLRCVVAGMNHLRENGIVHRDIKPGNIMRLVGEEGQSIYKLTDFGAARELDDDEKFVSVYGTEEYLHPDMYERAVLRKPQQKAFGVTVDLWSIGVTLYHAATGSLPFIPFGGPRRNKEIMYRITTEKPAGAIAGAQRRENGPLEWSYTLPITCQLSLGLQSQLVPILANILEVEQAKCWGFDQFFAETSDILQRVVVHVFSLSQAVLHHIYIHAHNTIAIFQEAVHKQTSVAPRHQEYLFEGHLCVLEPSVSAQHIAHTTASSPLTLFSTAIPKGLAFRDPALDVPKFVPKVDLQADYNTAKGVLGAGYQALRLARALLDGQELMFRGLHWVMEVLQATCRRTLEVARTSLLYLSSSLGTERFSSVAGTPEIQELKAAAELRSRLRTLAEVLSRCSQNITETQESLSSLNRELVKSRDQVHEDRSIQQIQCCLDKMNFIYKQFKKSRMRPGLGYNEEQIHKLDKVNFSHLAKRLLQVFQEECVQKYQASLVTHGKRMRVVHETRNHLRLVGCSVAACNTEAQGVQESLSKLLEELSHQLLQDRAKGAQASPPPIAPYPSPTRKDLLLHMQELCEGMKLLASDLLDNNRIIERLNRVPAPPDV
How it was run: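 IC50 values are geometric means of at least four determinations, fitted to a four-parameter curve after normalising to 1 μM staurosporine and DMSO. Signal: Eu-cryptate anti-phospho antibody plus 125 nM streptavidin-XL665 on a biotinylated peptide. Full-length recombinant enzyme reacted 240 min, 25 °C, then EDTA-quenched.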

TBK1 = target: T2, TBK1 (Homo sapiens, UniProt Q9UHD2); experiment: TR-FRET enzymatic activity assay, TBK1; type: biochemical; further: full length recombinant TBK1 at 2.5 nM
T2 construct: TBK1 and IKKε were expressed and purified as full length recombinant proteins; made in house
T2 sequence (Q9UHD2 1-729): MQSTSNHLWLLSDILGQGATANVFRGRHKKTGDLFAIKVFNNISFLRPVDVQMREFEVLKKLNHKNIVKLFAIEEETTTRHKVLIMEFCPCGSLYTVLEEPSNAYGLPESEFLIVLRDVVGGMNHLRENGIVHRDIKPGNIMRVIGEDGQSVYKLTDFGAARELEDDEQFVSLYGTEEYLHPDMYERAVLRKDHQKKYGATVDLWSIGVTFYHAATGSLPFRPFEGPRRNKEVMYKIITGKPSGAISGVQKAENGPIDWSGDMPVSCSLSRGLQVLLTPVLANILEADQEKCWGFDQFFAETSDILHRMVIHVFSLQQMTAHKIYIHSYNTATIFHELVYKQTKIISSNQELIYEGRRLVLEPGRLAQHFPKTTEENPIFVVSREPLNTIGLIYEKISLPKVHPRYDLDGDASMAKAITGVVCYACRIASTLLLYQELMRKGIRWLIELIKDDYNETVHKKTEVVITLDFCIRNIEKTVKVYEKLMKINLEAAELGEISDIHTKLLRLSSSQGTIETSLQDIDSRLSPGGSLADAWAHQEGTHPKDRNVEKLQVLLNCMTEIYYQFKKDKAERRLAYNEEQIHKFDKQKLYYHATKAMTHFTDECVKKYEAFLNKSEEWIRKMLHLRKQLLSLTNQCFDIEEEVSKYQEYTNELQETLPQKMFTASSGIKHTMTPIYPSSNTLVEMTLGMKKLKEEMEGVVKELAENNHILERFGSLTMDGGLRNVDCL
How it was run: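 TR-FRET detected phosphorylation of a biotinylated serine/threonine peptide using 125 nM streptavidin XL665 plus europium-labelled anti-phospho antibody. Reactions with full-length recombinant kinase ran 240 min at 25 °C before EDTA quench. Values are geometric-mean IC50s (n ≥ 4) from four-parameter dose-response fits against staurosporine and DMSO controls.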

Row | pIC50 (IKKε) | pIC50 (TBK1) | Structure (SMILES)
1 | 8.05 | 8.55 | N#Cc1cc(-c2cc(NC(=O)C3CC3)ncn2)ccc1O[C@H]1CCN(C(=O)[C@@H](O)CO)CC1(F)F [Example 22, N-(6-(3-cyano-4-(((S)-1-((S)-2,3-dihydroxypropanoyl)-3,3-difluoropiperidin-4-yl)oxy)phenyl)pyrimidin-4-yl)cyclopropanecarboxamide]
2 | 6.80 | 7.18 | N#Cc1cc(-c2cc(NC(=O)C3CC3)ncn2)ccc1OC1CCN(C(=O)CO)CC1 [Example 23, N-(6-(3-cyano-4-((1-(2-hydroxyacetyl)piperidin-4-yl)oxy)phenyl)pyrimidin-4-yl)cyclopropanecarboxamide]
3 | 6.72 | 7.06 | N#Cc1cc(-c2ccnc(NC(=O)C3CC3)c2)ncc1O[C@H]1CCN(C(=O)CO)C[C@H]1F [Example 24, N-(4-cyano-5-(((3R,4S)-3-fluoro-1-(2-hydroxyacetyl)piperidin-4-yl)oxy)-[2,4′-bipyridin]-2′-yl)cyclopropanecarboxamide]
4 | 6.53 | 7.03 | N#Cc1cc(-c2cc(NC(=O)C3CC3)ncn2)ccc1O[C@H]1CCNCC1(F)F [Example 25, (S)—N-(6-(3-cyano-4-((3,3-difluoropiperidin-4-yl)oxy)phenyl)pyrimidin-4-yl)cyclopropanecarboxamide]
5 | 7.53 | 7.74 | Cn1cc(C(=O)N2CC[C@H](Oc3ccc(-c4cc(NC(=O)C5CC5)ncn4)cc3C#N)[C@H](F)C2)nn1 [Example 27, N-(6-(3-cyano-4-(((3R,4S)-3-fluoro-1-(1-methyl-1H-1,2,3-triazole-4-carbonyl)piperidin-4-yl)oxy)phenyl)pyrimidin-4-yl)cyclopropanecarboxamide]
6 | 7.91 | 8.10 | N#Cc1cc(-c2cc(NC(=O)C3CC3)ncn2)ccc1O[C@H]1CCN(C(=O)c2nnc[nH]2)C[C@H]1F [Example 28, N-(6-(3-cyano-4-(((3R,4S)-3-fluoro-1-(4H-1,2,4-triazole-3-carbonyl)piperidin-4-yl)oxy)phenyl)pyrimidin-4-yl)cyclopropanecarboxamide]
7 | 6.89 | 7.33 | N#Cc1cc(-c2cc(NC(=O)C3CC3)ncn2)ccc1O[C@H]1CCN(C=O)C[C@H]1F [Example 29, N-(6-(3-cyano-4-(((3R,4S)-3-fluoro-1-formylpiperidin-4-yl)oxy)phenyl)pyrimidin-4-yl)cyclopropanecarboxamide]
8 | 8.13 | 8.14 | Cc1n[nH]c(C(=O)N2CC[C@H](Oc3ccc(-c4cc(NC(=O)C5CC5)ncn4)cc3C#N)[C@H](F)C2)n1 [Example 30, N-(6-(3-cyano-4-(((3R,4S)-3-fluoro-1-(3-methyl-1H-1,2,4-triazole-5-carbonyl)piperidin-4-yl)oxy)phenyl)pyrimidin-4-yl)cyclopropanecarboxamide]
9 | 8.15 | 8.25 | N#Cc1cc(-c2cc(NC(=O)C3CC3)ncn2)ccc1O[C@H]1CCN(C(=O)c2nnc[nH]2)CC1(F)F [Example 32, (S)—N-(6-(3-cyano-4-((3,3-difluoro-1-(4H-1,2,4-triazole-3-carbonyl)piperidin-4-yl)oxy)phenyl)pyrimidin-4-yl)cyclopropanecarboxamide]
10 | 6.78 | 7.32 | N#Cc1cc(-c2cc(NC(=O)C3CC3)ncn2)ccc1O[C@H]1CCN(C(=O)c2cnco2)C[C@H]1F [Example 33, N-(6-(3-cyano-4-(((3R,4S)-3-fluoro-1-(oxazole-5-carbonyl)piperidin-4-yl)oxy)phenyl)pyrimidin-4-yl)cyclopropanecarboxamide]
11 | 8.34 | 8.38 | Cc1n[nH]c(C(=O)N2CC[C@H](Oc3ccc(-c4cc(NC(=O)C5CC5)ncn4)cc3C#N)C(F)(F)C2)n1 [Example 34, (S)—N-(6-(3-cyano-4-((3,3-difluoro-1-(3-methyl-1H-1,2,4-triazole-5-carbonyl)piperidin-4-yl)oxy)phenyl)pyrimidin-4-yl)cyclopropanecarboxamide]
12 | < 6.00 | 6.12 | N#Cc1cc(-c2cc(NC(=O)C3CC3)ncn2)ccc1C(=O)NCC(F)F [Example 53, 2-cyano-4-(6-(cyclopropanecarboxamido)pyrimidin-4-yl)-N-(2,2-difluoroethyl)benzamide]

The remaining lines, values behind:

Row | Structure (SMILES) | pIC50 (IKKε) | pIC50 (TBK1)
13 | N#Cc1cc(-c2ccnc(NC(=O)C3CC3)c2)ccc1N1CCC[C@H]1C(=O)O [Example 26, (2-Cyano-4-(2-(cyclopropanecarboxamido)pyridin-4-yl)phenyl)-L-proline] | < 6.00 | 6.12
14 | C[n+]1ccccc1N1CC[C@H](Oc2ccc(-c3cc(NC(=O)C4CC4)ncn3)cc2C#N)[C@H](F)C1 [Example 31, 2-((3R,4S)-4-(2-cyano-4-(6-(cyclopropanecarboxamido)pyrimidin-4-yl)phenoxy)-3-fluoropiperidin-1-yl)-1-methylpyridin-1-ium 2,2,2-trifluoroacetate] | < 6.00 | < 6.00
15 | N#Cc1cc(-c2ccnc(NC(=O)C3(O)CC3)c2)ccc1OC1CCOCC1 [Example 36, N-(4-(3-cyano-4-((tetrahydro-2H-pyran-4-yl)oxy)phenyl)pyridin-2-yl)-1-hydroxycyclopropanecarboxamide] | < 6.00 | < 6.00
16 | CC(=O)OC1(C(=O)Nc2cc(-c3ccc(OC4CCOCC4)c(C#N)c3)ccn2)CC1 [Example 37, 1-((4-(3-cyano-4-((tetrahydro-2H-pyran-4-yl)oxy)phenyl)pyridin-2-yl)carbamoyl)cyclopropyl acetate] | < 6.00 | < 6.00
17 | CC(O)[C@@H]1C[C@H]1C(=O)Nc1cc(-c2ccc(OC3CCOCC3)c(C#N)c2)ccn1 (stereo partly drawn) [Example 39, (1,2-trans)-N-(4-(3-cyano-4-((tetrahydro-2H-pyran-4-yl)oxy)phenyl)pyridin-2-yl)-2-(-1-hydroxyethyl)cyclopropane-1-carboxamide] | 7.14 | 7.02
18 | N#Cc1cc(-c2ccnc(NC(=O)C3CC34CC4)c2)ccc1OC1CCOCC1 (centres unmarked) [Example 48, N-(4-(3-cyano-4-((tetrahydro-2H-pyran-4-yl)oxy)phenyl)pyridin-2-yl)spiro[2.2]pentane-1-carboxamide] | 6.29 | 6.57
19 | N#Cc1cc(-c2ccnc(NC(=O)C3(CF)CC3)c2)ccc1OC1CCOCC1 [Example 49, N-(4-(3-cyano-4-((tetrahydro-2H-pyran-4-yl)oxy)phenyl)pyridin-2-yl)-1-(fluoromethyl)cyclopropane-1-carboxamide] | < 6.00 | < 6.00
20 | N#Cc1cc(-c2ccnc(NC(=O)C3CC3c3ccco3)c2)ccc1OC1CCOCC1 (centres unmarked) [Example 51, N-(4-(3-cyano-4-((tetrahydro-2H-pyran-4-yl)oxy)phenyl)pyridin-2-yl)-2-(furan-2-yl)cyclopropane-1-carboxamide] | 6.37 | 7.24
21 | N#Cc1cc(-c2cc(NC(=O)C3CC3)ncn2)ccc1C(=O)NCC(F)(F)F [Example 54, 2-cyano-4-(6-(cyclopropanecarboxamido)pyrimidin-4-yl)-N-(2,2,2-trifluoroethyl)benzamide] | < 6.00 | 6.05
22 | CC(=O)NC1C2CC1C2C(=O)Nc1cc(-c2ccc(OC3CCOCC3)c(C#N)c2)ccn1 (centres unmarked) [Example 55, 4-acetamido-N-(4-(3-cyano-4-((tetrahydro-2H-pyran-4-yl)oxy)phenyl)pyridin-2-yl)bicyclo[1.1.1]pentane-2-carboxamide] | < 6.00 | < 6.00
